Experimental data taken from article PMC7954794, “Protein context shapes the specificity of SH3 domain-mediated interactions in vivo” (Nature Communications, 2021).

Tested on: Abp1 PPIs
Test: DHFR-PCA of Abp1 SH3-swapped baits (Fig. 2B-D, S2C, S2F);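 for Protein-protein interaction distance between Abp1 SH3-swapped baits, to ABP1: Euclidean distance between DHFR-PCA score profiles of the baits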;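 for Protein-protein interaction distance between Abp1 SH3-swapped baits, to BEM1-2: Euclidean distance between DHFR-PCA score profiles of the baits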;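 for Protein-protein interaction distance between Abp1 SH3-swapped baits, to BOI1: Euclidean distance between DHFR-PCA score profiles of the baits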;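 for Protein-protein interaction distance between Abp1 SH3-swapped baits, to BZZ1-1: Euclidean distance between DHFR-PCA score profiles of the baits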
Assay type: cell-based, Saccharomyces cerevisiae
Text: Having determined that multiple PPIs require SH3s, we asked whether the latter establish PPI specificity independently from their host proteins by swapping domains (Fig. 2A). Using the second round of genome editing, we individually replaced Abp1 SH3 with the 27 yeast SH3s and 3 human Abp1 orthologs’ SH3s (CTTN, HCLS1, and DBNL, Fig. 2B). The reintroduction of its own SH3 (Abp1SH3 in Abp1) reconstitutes almost perfectly Abp1’s interaction profile (Kendall’s τ = 0.93, Fig. 2B). […] No homologous SH3 domain fully re-establishes the normal Abp1 PPI profile (Fig. 2B and Supplementary Fig. 2C). However, we observe a significant correlation (cophenetic correlation = 0.20, p value = 0.005, Fig. 2C) between the similarity of PPI profiles (Fig. 2B) and the sequence similarity of the SH3s. […] Nonetheless, a subset of SH3-dependent PPIs is only observed with the endogenous domain. For instance, Hua2 and App1, both well-characterized partners of Abp1[14],[18],[19], are only detected when Abp1 contains its own SH3 (WT or swapped via editing). A given SH3 may therefore not be fully replaceable with other paralogous or orthologous domains. This pattern is confirmed by cellular growth phenotypic analyses (Supplementary Fig. 2D, E). PPIs, SH3 sequence similarity, and growth profiles under stress conditions are correlated (Supplementary Fig. 2D, E). This relationship is particularly clear when analyzing growth on media supplemented with hygromycin.
The stuffing of YSC84 SH3 rendered the strain sterile and was therefore not used for this study as the assays require crosses. For genes containing two SH3s (BZZ1 and BEM1), a combination of this first stuffer with a second one ([…]) coding for a highly similar linker ([…]) was used, which allowed targeting each SH3 position independently. The two N-terminal domains of SLA1, which are separated by six nucleotides, were stuffed by a single stuffer. Cells containing pCAS were selected via the G418 resistance cassette from the plasmid on YPD plates (YPD + NAT 100 μg/ml (DHFR F[1,2] selection) + G418 200 µg/mL (Bioshop Canada)). Colonies were randomly selected and grown in YPD media without G418 to allow plasmid loss. The correct insertion of the stuffer was validated by PCR and Sanger sequencing. The SH3-swapped, -shuffled, and -mutated strains were constructed following a second CRISPR–Cas9 editing step with the same procedures. The stuffer sequences were targeted by specific gRNAs (one gRNA per stuffer) and replaced by PCR amplified specific SH3 (with 40 bp homology arms) or libraries of mutated SH3 domains for Deep Mutational Scanning (DMS) with 78 bp flanking homology regions. Validation of the SH3 domain insertions was done as we previously described except for DMS libraries (see below).
The overall DHFR-PCA pipeline is based on Tarassov et al.[43] and the procedures have also been published as a visualized protocol. The screens were performed with robotically manipulated pin tools (BM5-SC1, S&P Robotics Inc.). First, the preys were cherry-picked from 96-well plates to omnitrays in a 384 format on YPD + HPH solid media. Plates were then combined into the 1536 format on YPD + HPH. The array was constituted of 575 preys previously shown to interact physically with at least one SH3-containing protein as reported in BioGRID V3.4.16 along with 40 negative controls. The prey array comprised a border of control strains of two rows and two columns corresponding to the PPI between LSM8-DHFR F[1,2] and CDC39-DHFR F[3]. This double border was used to remove border effects. Preys are present in duplicate at a randomized position in the 1536 array (except for YAL041W which is present four times per array). Baits were crossed with two prey plates, resulting in four independent bait–prey tests for each PPI. Baits were grown in liquid YPD + NAT and then transferred on solid YPD + NAT omnitrays. They were then replicated on YPD + NAT omnitrays in 1536 array format. […]

[1] = number of PPIs, difference, Abp1 SH3-swapped with the listed SH3, Fig2D,S2F
[2] = Fig2B, bait ABP1, label = prey, Replicates 4

RVS167
Protein-protein interaction distance between Abp1 SH3-swapped baits, to ABP1 (Abp1 bait with swapped SH3, distance to bait with ABP1 SH3, sheet Fig2C): 9.548
Protein-protein interaction distance between Abp1 SH3-swapped baits, to BBC1 (distance to Abp1 bait with BBC1 SH3, sheet Fig2C): 9.304
Protein-protein interaction distance between Abp1 SH3-swapped baits, to BEM1-1 (distance to Abp1 bait with BEM1-1 SH3, sheet Fig2C): 14.67
Protein-protein interaction distance between Abp1 SH3-swapped baits, to BEM1-2 (distance to Abp1 bait with BEM1-2 SH3, sheet Fig2C): 33.63
Protein-protein interaction distance between Abp1 SH3-swapped baits, to BOI1 (distance to Abp1 bait with BOI1 SH3, sheet Fig2C): 11.58
Protein-protein interaction distance between Abp1 SH3-swapped baits, to BOI2 (distance to Abp1 bait with BOI2 SH3, sheet Fig2C): 15.22
Protein-protein interaction distance between Abp1 SH3-swapped baits, to BUD14 (distance to Abp1 bait with BUD14 SH3, sheet Fig2C): 18.02
Protein-protein interaction distance between Abp1 SH3-swapped baits, to BZZ1-1 (distance to Abp1 bait with BZZ1-1 SH3, sheet Fig2C): 5.914
Protein-protein interaction distance between Abp1 SH3-swapped baits, to BZZ1-2 (distance to Abp1 bait with BZZ1-2 SH3, sheet Fig2C): 11.17
Protein-protein interaction distance between Abp1 SH3-swapped baits, to CDC25 (distance to Abp1 bait with CDC25 SH3, sheet Fig2C): 27.4
Protein-protein interaction distance between Abp1 SH3-swapped baits, to CTTN (distance to Abp1 bait with CTTN SH3, sheet Fig2C): 12.4
Protein-protein interaction distance between Abp1 SH3-swapped baits, to CYK3 (distance to Abp1 bait with CYK3 SH3, sheet Fig2C): 28.09
Protein-protein interaction distance between Abp1 SH3-swapped baits, to DBNL (distance to Abp1 bait with DBNL SH3, sheet Fig2C): 5.554
Protein-protein interaction distance between Abp1 SH3-swapped baits, to FUS1 (distance to Abp1 bait with FUS1 SH3, sheet Fig2C): 19.5
Protein-protein interaction distance between Abp1 SH3-swapped baits, to HCLS1 (distance to Abp1 bait with HCLS1 SH3, sheet Fig2C): 7.638
Protein-protein interaction distance between Abp1 SH3-swapped baits, to HOF1 (distance to Abp1 bait with HOF1 SH3, sheet Fig2C): 32.19
Protein-protein interaction distance between Abp1 SH3-swapped baits, to HSE1 (distance to Abp1 bait with HSE1 SH3, sheet Fig2C): 7.315
Protein-protein interaction distance between Abp1 SH3-swapped baits, to LSB1 (distance to Abp1 bait with LSB1 SH3, sheet Fig2C): 7.392
Protein-protein interaction distance between Abp1 SH3-swapped baits, to LSB3 (distance to Abp1 bait with LSB3 SH3, sheet Fig2C): 7.852
Protein-protein interaction distance between Abp1 SH3-swapped baits, to MYO3 (distance to Abp1 bait with MYO3 SH3, sheet Fig2C): 9.049
Protein-protein interaction distance between Abp1 SH3-swapped baits, to MYO5 (distance to Abp1 bait with MYO5 SH3, sheet Fig2C): 7.689
Protein-protein interaction distance between Abp1 SH3-swapped baits, to NBP2 (distance to Abp1 bait with NBP2 SH3, sheet Fig2C): 17.22
Protein-protein interaction distance between Abp1 SH3-swapped baits, to PEX13 (distance to Abp1 bait with PEX13 SH3, sheet Fig2C): 4.587
Protein-protein interaction distance between Abp1 SH3-swapped baits, to PIN3 (distance to Abp1 bait with PIN3 SH3, sheet Fig2C): 5.294
Protein-protein interaction distance between Abp1 SH3-swapped baits, to RVS167 (distance to Abp1 bait with RVS167 SH3, sheet Fig2C): 0.00
Protein-protein interaction distance between Abp1 SH3-swapped baits, to SDC25 (distance to Abp1 bait with SDC25 SH3, sheet Fig2C): 34.37
Protein-protein interaction distance between Abp1 SH3-swapped baits, to SHO1 (distance to Abp1 bait with SHO1 SH3, sheet Fig2C): 6.815
Protein-protein interaction distance between Abp1 SH3-swapped baits, to SLA1-1 (distance to Abp1 bait with SLA1-1 SH3, sheet Fig2C): 30.09
Protein-protein interaction distance between Abp1 SH3-swapped baits, to SLA1-2 (distance to Abp1 bait with SLA1-2 SH3, sheet Fig2C): 19.9
Protein-protein interaction distance between Abp1 SH3-swapped baits, to SLA1-3 (distance to Abp1 bait with SLA1-3 SH3, sheet Fig2C): 7.698
Protein-protein interaction distance between Abp1 SH3-swapped baits, to YSC84 (distance to Abp1 bait with YSC84 SH3, sheet Fig2C): 8.283
PPIs gained by Abp1 - SH3-dependent PPIs gained by Abp1 [1]: 9
SH3-dependent PPIs - SH3-dependent PPIs gained by Abp1 [1]: 26
SH3-dependent PPIs gained by Abp1 (number of PPIs, Abp1 SH3-swapped with the listed SH3, DHFR-PCA, Fig2D,S2F): 5

YAL005C
medrep (log2 median colony size normalized to plate background) [2]: 5.43
medsize (median colony size) [2]: 6098
